Reference: patent publication US7338809B2, “Method for assaying whole blood” (Mitsubishi Kagaku Iatron, Inc., priority 2001, dated 2008)
Entries after “also recorded” stand apart in the source; their conditions may differ.

Legend:
whole blood [1] = test: Example 3: visual inspection of reaction system with whole blood treatment solutions (hemolysis, adhesion and aggregation of magnetic particles)
Experimental: Examination was conducted on the assumption that a detergent was added to the reaction system by adding the detergent to a whole blood treatment solution beforehand. The whole blood treatment solutions were prepared by dissolving various detergents in 0.1 M Tris buffer (pH 8.0) containing 1% BSA and 0.15 M NaCl, and it was examined which detergent was suitable for the measurement method of the present invention.
Blood was collected by using an EDTA blood collection tube. Then, HBsAg was added at 1 U/ml to each of the whole blood stored at 4° C. for 3 days and plasma obtained from the whole blood by centrifugation, and a recovery test for HBsAg was performed using the luminescence intensity obtained in the measurement using plasma, which was taken as 100%.
The assay was performed in the same manner as in Example 2. Whole blood and each of the various whole blood treatment solutions were mixed at a ratio of 9:1, plasma was mixed with purified water at a ratio of 9:1, and HBsAg was immediately measured. Further, whole blood was mixed with the aforementioned buffer (0.1 M Tris buffer (pH 8.0) containing 1% BSA and 0.15 M NaCl) without adding a detergent instead of a whole blood treatment solution, and HBsAg was measured in the same manner. Presence or absence of hemolysis in the reaction system, non-specific adhesion of magnetic particles on the reaction vessel (made of polypropylene) and non-specific aggregation of magnetic particles during reaction were confirmed by visual inspection.

whole blood [2] = test: Example 5: visual inspection of reaction system using fresh whole blood (hemolysis, adhesion, aggregation)
Experimental: In emergent tests, in particular, it is desirable to perform an assay immediately after blood collection, and erythrocytes in whole blood may be gradually hemolyzed during storage, possibly affecting the measurement. Therefore, examination was performed by using fresh blood immediately after blood collection.

whole blood [3] = test: Example 4: visual inspection of reaction system, types and concentrations of detergents (hemolysis, adhesion, aggregation); settings: heparin whole blood stored overnight at 4° C.
Experimental: Blood was collected by using a blood collection tube treated with heparin as an anticoagulant. […] Each detergent was added at a concentration of 0.01, 0.1, 0.5, 1 and 10% as a final concentration after the mixing with whole blood. Presence or absence of hemolysis in the reaction system, non-specific adhesion of magnetic particles on the reaction vessel (made of polypropylene) and non-specific aggregation of magnetic particles during reaction were confirmed by visual inspection for each detergent in each reaction system, and recovery ratio with respect to the added amount was determined.

[4] = detergent 1% upon mixing of whole blood, EDTA whole blood stored at 4° C. for 3 days, visual inspection

O=S(=O)([O-])CCC[n+]1ccccc1
Hemolysis (whole blood [1]): Absent | Hemolysis (whole blood [2]): Absent

Saponin
Hemolysis (whole blood [1]): Present

Polyoxyethylene octyl phenyl ether [Triton X-100]
Hemolysis (whole blood [3]; detergent 0.01% upon mixing of whole blood): Absent | Hemolysis (whole blood [3]; detergent 0.1% upon mixing of whole blood): Absent | Hemolysis (whole blood [3]; detergent 0.5% upon mixing of whole blood): hemolysis was observed; also recorded: Present | Hemolysis (whole blood [3]; detergent 1% upon mixing of whole blood): Present | Hemolysis (whole blood [3]; detergent 10% upon mixing of whole blood): Present | Hemolysis (whole blood [1]; [4]): Present

C[C@H](CCC(=O)NCCC[N+](C)(C)CCCS(=O)(=O)[O-])[C@H]1CC[C@H]2[C@@H]3[C@H](O)C[C@@H]4C[C@H](O)CC[C@]4(C)[C@H]3C[C@H](O)[C@]12C [CHAPS, 3-{(3-Cholamidopropyl)dimethylammonio}-1-propanesulfonate]
Hemolysis (whole blood [1]; [4]): Present

Polyoxyethylene stearyl ether [Brij 78]
Hemolysis (whole blood [1]; [4]): Present
